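Cultured in 96-well plates, cells were exposed to test compound for 48 hours across five concentrations. TGI is the concentration that stops growth completely.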 *1 amine or outer side, *2 acyl side, *3 side chain or, on linkers, in order; H or OH if unused. Where a SMILES comes first, the peptide text is derived from it. [ ]: non-standard residue; d: D form. The star is where a group is joined. X31 = CC(=O)N(C)SCC(N[*:1])C(=O)[*:2]; Fmoc = O=C(OCC1c2ccccc2-c2ccccc21)*; For = O=C*
Legend:
Assay in all cases: growth of human tumour cells (NCI), 48 h
786-0 renal = system: 786-0 renal
A549 NSCLC = system: A549 NSCLC
ACHN renal = system: ACHN renal
BT-549 breast = system: BT-549 breast
CCRF-CEM leukemia = system: CCRF-CEM leukemia
COLO 205 colon = system: COLO 205 colon
DU-145 prostate = system: DU-145 prostate
EKVX NSCLC = system: EKVX NSCLC
HCC-2998 colon = system: HCC-2998 colon
HCT-116 colon = system: HCT-116 colon
HCT-15 colon = system: HCT-15 colon
HL-60(TB) leukemia = system: HL-60(TB) leukemia
HOP-62 NSCLC = system: HOP-62 NSCLC
HOP-92 NSCLC = system: HOP-92 NSCLC
HS 578T breast = system: HS 578T breast
HT29 colon = system: HT29 colon
IGROV1 ovarian = system: IGROV1 ovarian
K-562 leukemia = system: K-562 leukemia
KM12 colon = system: KM12 colon
LOX IMVI melanoma = system: LOX IMVI melanoma
M14 melanoma = system: M14 melanoma
MALME-3M melanoma = system: MALME-3M melanoma
MCF7 breast = system: MCF7 breast
MDA-MB-231 breast = system: MDA-MB-231 breast
MDA-MB-435 = system: MDA-MB-435
MDA-N = system: MDA-N
MOLT-4 leukemia = system: MOLT-4 leukemia
NCI-H226 lung = system: NCI-H226 lung
NCI-H23 lung = system: NCI-H23 lung
NCI-H460 lung = system: NCI-H460 lung
NCI-H522 lung = system: NCI-H522 lung
NCI/ADR-RES ovarian = system: NCI/ADR-RES ovarian
OVCAR-3 ovarian = system: OVCAR-3 ovarian
OVCAR-4 ovarian = system: OVCAR-4 ovarian
OVCAR-5 ovarian = system: OVCAR-5 ovarian
OVCAR-8 ovarian = system: OVCAR-8 ovarian
PC-3 prostate = system: PC-3 prostate
RPMI-8226 leukemia = system: RPMI-8226 leukemia
RXF 393 renal = system: RXF 393 renal
SF-268 CNS = system: SF-268 CNS
SF-295 CNS = system: SF-295 CNS
SF-539 CNS = system: SF-539 CNS
SK-MEL-2 melanoma = system: SK-MEL-2 melanoma
SK-MEL-28 melanoma = system: SK-MEL-28 melanoma
SK-MEL-5 melanoma = system: SK-MEL-5 melanoma
SK-OV-3 ovarian = system: SK-OV-3 ovarian
SN12C renal = system: SN12C renal
SNB-19 CNS = system: SNB-19 CNS
SNB-75 CNS = system: SNB-75 CNS
SR leukemia = system: SR leukemia
SW-620 colon = system: SW-620 colon
T-47D breast = system: T-47D breast
TK-10 renal = system: TK-10 renal
U251 CNS = system: U251 CNS
UACC-257 melanoma = system: UACC-257 melanoma
UACC-62 melanoma = system: UACC-62 melanoma
UO-31 renal = system: UO-31 renal
A498 renal = system: A498 renal
CAKI-1 renal = system: CAKI-1 renal

Compound: CC(=O)N(C)SCC(NC(=O)C(Cc1ccccc1)NC(=O)OCC1c2ccccc2-c2ccccc21)C(=O)NC(Cc1ccccc1)C(=O)NC(Cc1cn(C=O)c2ccccc12)C(=O)NC(CCCCNC(=O)OCC1c2ccccc2-c2ccccc21)C(=O)NC(C(=O)NC(CSN(C)C(C)=O)C(=O)NC(C(N)=O)C(C)O)C(C)O (stereo not drawn) (Fmoc-F[X31]FW(For)K(Fmoc)T[X31]T-NH2; configuration not given here)
- TGI (786-0 renal): > 100 µM
- TGI (A549 NSCLC): > 100 µM
- TGI (ACHN renal): > 100 µM
- TGI (BT-549 breast): > 100 µM
- TGI (CCRF-CEM leukemia): > 100 µM
- TGI (COLO 205 colon): > 100 µM
- TGI (DU-145 prostate): > 100 µM
- TGI (EKVX NSCLC): > 100 µM
- TGI (HCC-2998 colon): > 100 µM
- TGI (HCT-116 colon): > 100 µM
- TGI (HCT-15 colon): > 100 µM
- TGI (HL-60(TB) leukemia): > 100 µM
- TGI (HOP-62 NSCLC): > 100 µM
- TGI (HOP-92 NSCLC): 62.4 µM
- TGI (HS 578T breast): > 100 µM
- TGI (HT29 colon): > 100 µM
- TGI (IGROV1 ovarian): > 100 µM
- TGI (K-562 leukemia): > 100 µM
- TGI (KM12 colon): 64.5 µM
- TGI (LOX IMVI melanoma): > 100 µM
- TGI (M14 melanoma): > 100 µM
- TGI (MALME-3M melanoma): > 100 µM
- TGI (MCF7 breast): > 100 µM
- TGI (MDA-MB-231 breast): 51.4 µM
- TGI (MDA-MB-435): > 100 µM
- TGI (MDA-N): > 100 µM
- TGI (MOLT-4 leukemia): > 100 µM
- TGI (NCI-H226 lung): > 100 µM
- TGI (NCI-H23 lung): > 100 µM
- TGI (NCI-H460 lung): > 100 µM
- TGI (NCI-H522 lung): > 100 µM
- TGI (NCI/ADR-RES ovarian): > 100 µM
- TGI (OVCAR-3 ovarian): > 100 µM
- TGI (OVCAR-4 ovarian): > 100 µM
- TGI (OVCAR-5 ovarian): > 100 µM
- TGI (OVCAR-8 ovarian): > 100 µM
- TGI (PC-3 prostate): > 100 µM
- TGI (RPMI-8226 leukemia): > 100 µM
- TGI (RXF 393 renal): 72.3 µM
- TGI (SF-268 CNS): > 100 µM
- TGI (SF-295 CNS): > 100 µM
- TGI (SF-539 CNS): > 100 µM
- TGI (SK-MEL-2 melanoma): > 100 µM
- TGI (SK-MEL-28 melanoma): > 100 µM
- TGI (SK-MEL-5 melanoma): > 100 µM
- TGI (SK-OV-3 ovarian): > 100 µM
- TGI (SN12C renal): > 100 µM
- TGI (SNB-19 CNS): > 100 µM
- TGI (SNB-75 CNS): > 100 µM
- TGI (SR leukemia): > 100 µM
- TGI (SW-620 colon): > 100 µM
- TGI (T-47D breast): > 100 µM
- TGI (TK-10 renal): 67.5 µM
- TGI (U251 CNS): > 100 µM
- TGI (UACC-257 melanoma): > 100 µM
- TGI (UACC-62 melanoma): > 100 µM
- TGI (UO-31 renal): 70.2 µM

Compound: O=c1oc2c(ccc3c(O)cccc32)c2c1CCCC2
- TGI (786-0 renal): > 100 µM
- TGI (A498 renal): 80.8 µM
- TGI (A549 NSCLC): > 100 µM
- TGI (ACHN renal): > 100 µM
- TGI (BT-549 breast): 73.6 µM
- TGI (CAKI-1 renal): > 100 µM
- TGI (CCRF-CEM leukemia): > 100 µM
- TGI (COLO 205 colon): > 100 µM
- TGI (DU-145 prostate): > 100 µM
- TGI (EKVX NSCLC): > 100 µM
- TGI (HCC-2998 colon): > 100 µM
- TGI (HCT-116 colon): > 100 µM
- TGI (HL-60(TB) leukemia): > 100 µM
- TGI (HOP-62 NSCLC): 48.4 µM
- TGI (HOP-92 NSCLC): 50.1 µM
- TGI (HS 578T breast): > 100 µM
- TGI (HT29 colon): > 100 µM
- TGI (IGROV1 ovarian): > 100 µM
- TGI (K-562 leukemia): > 100 µM
- TGI (KM12 colon): > 100 µM
- TGI (LOX IMVI melanoma): > 100 µM
- TGI (M14 melanoma): > 100 µM
- TGI (MALME-3M melanoma): > 100 µM
- TGI (MCF7 breast): > 100 µM
- TGI (MDA-MB-231 breast): 47.1 µM
- TGI (MDA-MB-435): > 100 µM
- TGI (MDA-N): > 100 µM
- TGI (MOLT-4 leukemia): > 100 µM
- TGI (NCI-H226 lung): > 100 µM
- TGI (NCI-H23 lung): > 100 µM
- TGI (NCI-H460 lung): > 100 µM
- TGI (NCI-H522 lung): > 100 µM
- TGI (NCI/ADR-RES ovarian): > 100 µM
- TGI (OVCAR-3 ovarian): > 100 µM
- TGI (OVCAR-4 ovarian): > 100 µM
- TGI (OVCAR-5 ovarian): > 100 µM
- TGI (OVCAR-8 ovarian): > 100 µM
- TGI (PC-3 prostate): > 100 µM
- TGI (RPMI-8226 leukemia): > 100 µM
- TGI (RXF 393 renal): 39.8 µM
- TGI (SF-268 CNS): 40.8 µM
- TGI (SF-295 CNS): 58 µM
- TGI (SF-539 CNS): > 100 µM
- TGI (SK-MEL-2 melanoma): > 100 µM
- TGI (SK-MEL-28 melanoma): > 100 µM
- TGI (SK-MEL-5 melanoma): > 100 µM
- TGI (SN12C renal): > 100 µM
- TGI (SNB-19 CNS): > 100 µM
- TGI (SNB-75 CNS): 19.9 µM
- TGI (SR leukemia): > 100 µM
- TGI (SW-620 colon): > 100 µM
- TGI (T-47D breast): > 100 µM
- TGI (TK-10 renal): > 100 µM
- TGI (U251 CNS): 55.9 µM
- TGI (UACC-257 melanoma): > 100 µM
- TGI (UACC-62 melanoma): 27.2 µM
- TGI (UO-31 renal): > 100 µM

Compound: CC(=O)/C(=C(/Br)I)c1ccccc1
- TGI (786-0 renal): 28 µM
- TGI (A498 renal): 28.5 µM
- TGI (A549 NSCLC): 51.7 µM
- TGI (ACHN renal): 27.6 µM
- TGI (BT-549 breast): 6.33 µM
- TGI (CAKI-1 renal): 6.83 µM
- TGI (CCRF-CEM leukemia): 11.3 µM
- TGI (COLO 205 colon): 26.4 µM
- TGI (DU-145 prostate): 31.4 µM
- TGI (EKVX NSCLC): 26.5 µM
- TGI (HCC-2998 colon): 12.3 µM
- TGI (HCT-116 colon): 15.2 µM
- TGI (HCT-15 colon): 17.7 µM
- TGI (HL-60(TB) leukemia): 4.95 µM
- TGI (HOP-62 NSCLC): 29.7 µM
- TGI (HOP-92 NSCLC): 23.8 µM
- TGI (HS 578T breast): > 66 µM
- TGI (HT29 colon): 13.8 µM
- TGI (IGROV1 ovarian): 49.3 µM
- TGI (K-562 leukemia): > 31.6 µM
- TGI (KM12 colon): 28.2 µM
- TGI (LOX IMVI melanoma): 22.5 µM
- TGI (M14 melanoma): 21.3 µM
- TGI (MALME-3M melanoma): 23.1 µM
- TGI (MCF7 breast): 19.1 µM
- TGI (MDA-MB-231 breast): 28.7 µM
- TGI (MDA-MB-435): 11.9 µM
- TGI (MDA-N): 14.8 µM
- TGI (MOLT-4 leukemia): 20.5 µM
- TGI (NCI-H226 lung): 27.2 µM
- TGI (NCI-H23 lung): 16.8 µM
- TGI (NCI-H460 lung): 48.3 µM
- TGI (NCI-H522 lung): 3.11 µM
- TGI (NCI/ADR-RES ovarian): 45 µM
- TGI (OVCAR-3 ovarian): 17.9 µM
- TGI (OVCAR-4 ovarian): 25 µM
- TGI (OVCAR-5 ovarian): 32.1 µM
- TGI (OVCAR-8 ovarian): 28.1 µM
- TGI (PC-3 prostate): 32.2 µM
- TGI (RPMI-8226 leukemia): 9.35 µM
- TGI (RXF 393 renal): 13.3 µM
- TGI (SF-268 CNS): > 46.3 µM
- TGI (SF-295 CNS): 29 µM
- TGI (SF-539 CNS): 47.8 µM
- TGI (SK-MEL-2 melanoma): 15.7 µM
- TGI (SK-MEL-28 melanoma): 26.5 µM
- TGI (SK-MEL-5 melanoma): 30.8 µM
- TGI (SK-OV-3 ovarian): > 64.5 µM
- TGI (SN12C renal): 17.4 µM
- TGI (SNB-19 CNS): 37.5 µM
- TGI (SNB-75 CNS): 39.6 µM
- TGI (SR leukemia): 13.5 µM
- TGI (SW-620 colon): 11.4 µM
- TGI (T-47D breast): 13.3 µM
- TGI (TK-10 renal): 36.3 µM
- TGI (U251 CNS): 26.5 µM
- TGI (UACC-257 melanoma): 25.4 µM
- TGI (UACC-62 melanoma): > 48.4 µM
- TGI (UO-31 renal): 25.1 µM

— PubChem BioAssay (NCI)
